Results reported in patent US6534447B1, “Herbicidal pyridine compounds” (BASF Aktiengesellschaft, priority 1999, dated 2003).

Legend:
Assay type in all cases: in vivo
Zea mays (ZEAMX, maize) = assay: Pre-emergence herbicidal evaluation (crop); conditions: 3 weeks after treatment
From the text: (§1) The pre-emergence herbicidal activity of the compounds of the present invention is exemplified by the following test in which the seeds of a variety of monocotyledonous and dicotyledonous plants are seperately mixed with potting soil and planted on top of approximately one inch of soil in separate post. After planting, the pots are sprayed with the selected aqueous acetone solution. containing test compound in sufficient quantity to provide the equivalent of about 0.025 to 0.4 kg per hectare of test compound per pot. The treated pots are then placed on greenhouse benches, watered and cared for in accordance with conventional greenhouse procedures. From 3 weeks after treatment, the tests are terminated and each pot is examined and rated according to the rating system set forth below. [table] [table]

[1] = test system: Triticum aestivum (TRZAW, winter wheat); assay: Pre-emergence herbicidal evaluation (crop); conditions: 3 weeks after treatment
From the text: as §1

[2] = test system: Glycine max (GLXMA, soyabeans); assay: Pre-emergence herbicidal evaluation (crop); conditions: 3 weeks after treatment
From the text: as §1

eight weed species = assay: Pre-emergence herbicidal evaluation, overall weed control
From the text: as §1, with “below.” for “below. [table] [table]”
Thus, there is evidence for the good potential of the compounds of the invention for excellent cross spectrum control of both grasses and broadleaf weeds in key crops.

[3] = test system: Alopecurus myosuroides (ALOMY, black grass); assay: Pre-emergence herbicidal evaluation; conditions: 3 weeks after treatment
From the text: as §1

[4] = test system: Stellaria media (STEME, chickweed); assay: Pre-emergence herbicidal evaluation; conditions: 3 weeks after treatment
From the text: as §1

[5] = test system: Ipomoea hederacea (IPOHE, morning glory); assay: Pre-emergence herbicidal evaluation; conditions: 3 weeks after treatment
From the text: as §1

[6] = test system: Setaria viridis (SETVI, green foxtail); assay: Pre-emergence herbicidal evaluation; conditions: 3 weeks after treatment
From the text: as §1

[7] = test system: Matricaria inodora (MATIN, mayweed); assay: Pre-emergence herbicidal evaluation; conditions: 3 weeks after treatment
From the text: as §1

[8] = test system: Echinochloa grus galli (ECHCG, barnyard grass); assay: Pre-emergence herbicidal evaluation; conditions: 3 weeks after treatment
From the text: as §1

[9] = test system: Abutilon theophrasti (ABUTH, velvetleaf); assay: Pre-emergence herbicidal evaluation; conditions: 3 weeks after treatment
From the text: as §1

[10] = test system: Galium aparine (GALAP, cleaver); assay: Pre-emergence herbicidal evaluation; conditions: 3 weeks after treatment
From the text: as §1

[11] = test system: Alopecurus myosuroides (ALOMY, black grass); assay: Post-emergence herbicidal evaluation; conditions: 3 weeks after treatment
Procedure: (§2) These acetone solutions are diluted with water and the resulting formulations applied at dosage levels equivalent of about 0.025 to 0.4 kg per hectare of test compound per pot. After spraying the plants are placed on greenhouse benches and are cared for in the usual manner, commensurate with conventional greenhouse practices. From 3 weeks after treatment, the seedling plants are examined and rated according to the rating system provided above. A rating 0 indicates growth as untreated control, a rating 9 indicates death.

[12] = test system: Ipomoea hederacea (IPOHE, morning glory); assay: Post-emergence herbicidal evaluation; conditions: 3 weeks after treatment
Procedure: as §2

[13] = test system: Setaria viridis (SETVI, green foxtail); assay: Post-emergence herbicidal evaluation; conditions: 3 weeks after treatment
Procedure: as §2

[14] = test system: Matricaria inodora (MATIN, mayweed); assay: Post-emergence herbicidal evaluation; conditions: 3 weeks after treatment
Procedure: as §2

[15] = test system: Dolium multiflorum (LOLMU, ryegrass); assay: Post-emergence herbicidal evaluation; conditions: rate 0.100 kg/ha, 3 weeks after treatment
Procedure: as §2

[16] = test system: Echinochloa grus galli (ECHCG, barnyard grass); assay: Post-emergence herbicidal evaluation; conditions: 3 weeks after treatment
Procedure: as §2

[17] = test system: Abutilon theophrasti (ABUTH, velvetleaf); assay: Post-emergence herbicidal evaluation; conditions: 3 weeks after treatment
Procedure: as §2

[18] = test system: Galium aparine (GALAP, cleaver); assay: Post-emergence herbicidal evaluation; conditions: 3 weeks after treatment
Procedure: as §2

[19] = test system: Stellaria media (STEME, chickweed); assay: Post-emergence herbicidal evaluation; conditions: 3 weeks after treatment
Procedure: as §2

[20] = crop selective dose of 0.1 kg/ha

## Cc1cc(OCCSC(F)(F)F)nc(Oc2cc(C(F)(F)F)nn2C)c1 [Example 1, 2-(1-methyl-3-trifluoromethylpyrazol-5-yloxy)-6-(2-trifluoromethylthioethoxy)-4-methylpyridine]
Zea mays (ZEAMX, maize); rate 0.025 kg/ha
  ZEAMX rating: 2 (2 - Slight effect)
Zea mays (ZEAMX, maize); rate 0.100 kg/ha
  ZEAMX rating: 4 (4 - Injury)
Zea mays (ZEAMX, maize); rate 0.400 kg/ha
  ZEAMX rating: 5 (5 - Definite injury)
[1]; rate 0.025 kg/ha
  TRZAW rating: 1 (1 - Trace effect)
[1]; rate 0.100 kg/ha
  TRZAW rating: 2 (2 - Slight effect)
[1]; rate 0.400 kg/ha
  TRZAW rating: 3 (3 - Moderate effect)
[2]; rate 0.025 kg/ha
  GLXMA rating: 2 (2 - Slight effect)
[2]; rate 0.100 kg/ha
  GLXMA rating: 3 (3 - Moderate effect)
[2]; rate 0.400 kg/ha
  GLXMA rating: 4 (4 - Injury)
Eight weed species; [20]
  weed control (in words): complete control
[3]; rate 0.025 kg/ha
  ALOMY rating: 7 (7 - Good herbicidal effect)
[3]; rate 0.100 kg/ha
  ALOMY rating: 9 (9 - Complete kill)
[3]; rate 0.400 kg/ha
  ALOMY rating: 9 (9 - Complete kill)
[4]; rate 0.025 kg/ha
  STEME rating: 9 (9 - Complete kill)
[4]; rate 0.100 kg/ha
  STEME rating: 9 (9 - Complete kill)
[4]; rate 0.400 kg/ha
  STEME rating: 9 (9 - Complete kill)
[5]; rate 0.025 kg/ha
  IPOHE rating: 6 (6 - Herbicidal effect)
[5]; rate 0.100 kg/ha
  IPOHE rating: 9 (9 - Complete kill)
[5]; rate 0.400 kg/ha
  IPOHE rating: 9 (9 - Complete kill)
[6]; rate 0.025 kg/ha
  SETVI rating: 9 (9 - Complete kill)
[6]; rate 0.100 kg/ha
  SETVI rating: 9 (9 - Complete kill)
[6]; rate 0.400 kg/ha
  SETVI rating: 9 (9 - Complete kill)
[7]; rate 0.025 kg/ha
  MATIN rating: 9 (9 - Complete kill)
[7]; rate 0.100 kg/ha
  MATIN rating: 9 (9 - Complete kill)
[7]; rate 0.400 kg/ha
  MATIN rating: 9 (9 - Complete kill)
[8]; rate 0.025 kg/ha
  ECHCG rating: 7 (7 - Good herbicidal effect)
[8]; rate 0.100 kg/ha
  ECHCG rating: 9 (9 - Complete kill)
[8]; rate 0.400 kg/ha
  ECHCG rating: 9 (9 - Complete kill)
[9]; rate 0.025 kg/ha
  ABUTH rating: 8 (8 - Approaching complete kill)
[9]; rate 0.100 kg/ha
  ABUTH rating: 9 (9 - Complete kill)
[9]; rate 0.400 kg/ha
  ABUTH rating: 9 (9 - Complete kill)
[10]; rate 0.025 kg/ha
  GALAP rating: 6 (6 - Herbicidal effect)
[10]; rate 0.100 kg/ha
  GALAP rating: 8 (8 - Approaching complete kill)
[10]; rate 0.400 kg/ha
  GALAP rating: 8 (8 - Approaching complete kill)
[11]; rate 0.025 kg/ha
  ALOMY rating: 4 (4 - Injury)
[11]; rate 0.100 kg/ha
  ALOMY rating: 7 (7 - Good herbicidal effect)
[11]; rate 0.400 kg/ha
  ALOMY rating: 8 (8 - Approaching complete kill)
[12]; rate 0.025 kg/ha
  IPOHE rating: 8 (8 - Approaching complete kill)
[12]; rate 0.100 kg/ha
  IPOHE rating: 8 (8 - Approaching complete kill)
[12]; rate 0.400 kg/ha
  IPOHE rating: 9 (9 - Complete kill)
[13]; rate 0.025 kg/ha
  SETVI rating: 5 (5 - Definite injury)
[13]; rate 0.100 kg/ha
  SETVI rating: 8 (8 - Approaching complete kill)
[13]; rate 0.400 kg/ha
  SETVI rating: 8 (8 - Approaching complete kill)
[14]; rate 0.025 kg/ha
  MATIN rating: 5 (5 - Definite injury)
[14]; rate 0.100 kg/ha
  MATIN rating: 7 (7 - Good herbicidal effect)
[14]; rate 0.400 kg/ha
  MATIN rating: 8 (8 - Approaching complete kill)
[15]
  LOLMU rating: 8 (8 - Approaching complete kill)
[16]; rate 0.025 kg/ha
  ECHCG rating: 6 (6 - Herbicidal effect)
[16]; rate 0.100 kg/ha
  ECHCG rating: 9 (9 - Complete kill)
[16]; rate 0.400 kg/ha
  ECHCG rating: 9 (9 - Complete kill)
[17]; rate 0.025 kg/ha
  ABUTH rating: 5 (5 - Definite injury)
[17]; rate 0.100 kg/ha
  ABUTH rating: 6 (6 - Herbicidal effect)
[17]; rate 0.400 kg/ha
  ABUTH rating: 6 (6 - Herbicidal effect)
[18]; rate 0.025 kg/ha
  GALAP rating: 2 (2 - Slight effect)
[18]; rate 0.100 kg/ha
  GALAP rating: 5 (5 - Definite injury)
[18]; rate 0.400 kg/ha
  GALAP rating: 8 (8 - Approaching complete kill)

## Cc1cc(OCCCSC(F)(F)F)nc(Oc2cc(C(F)(F)F)nn2C)c1 [Example 4]
Zea mays (ZEAMX, maize); rate 0.025 kg/ha
  ZEAMX rating: 2 (2 - Slight effect)
Zea mays (ZEAMX, maize); rate 0.100 kg/ha
  ZEAMX rating: 2 (2 - Slight effect)
Zea mays (ZEAMX, maize); rate 0.400 kg/ha
  ZEAMX rating: 4 (4 - Injury)
[1]; rate 0.025 kg/ha
  TRZAW rating: 0 (0 - No effect)
[1]; rate 0.100 kg/ha
  TRZAW rating: 0 (0 - No effect)
[1]; rate 0.400 kg/ha
  TRZAW rating: 2 (2 - Slight effect)
[2]; rate 0.025 kg/ha
  GLXMA rating: 1 (1 - Trace effect)
[2]; rate 0.100 kg/ha
  GLXMA rating: 2 (2 - Slight effect)
[2]; rate 0.400 kg/ha
  GLXMA rating: 3 (3 - Moderate effect)
Eight weed species; [20]
  weed control (in words): high levels of activity
Eight weed species; wheat selective dose of 0.4 kg/ha
  weed control (in words): complete weed control
[3]; rate 0.025 kg/ha
  ALOMY rating: 5 (5 - Definite injury)
[3]; rate 0.100 kg/ha
  ALOMY rating: 8 (8 - Approaching complete kill)
[3]; rate 0.400 kg/ha
  ALOMY rating: 8 (8 - Approaching complete kill)
[4]; rate 0.025 kg/ha
  STEME rating: 9 (9 - Complete kill)
[4]; rate 0.100 kg/ha
  STEME rating: 9 (9 - Complete kill)
[4]; rate 0.400 kg/ha
  STEME rating: 9 (9 - Complete kill)
[5]; rate 0.025 kg/ha
  IPOHE rating: 6 (6 - Herbicidal effect)
[5]; rate 0.100 kg/ha
  IPOHE rating: 9 (9 - Complete kill)
[5]; rate 0.400 kg/ha
  IPOHE rating: 9 (9 - Complete kill)
[6]; rate 0.025 kg/ha
  SETVI rating: 8 (8 - Approaching complete kill)
[6]; rate 0.100 kg/ha
  SETVI rating: 9 (9 - Complete kill)
[6]; rate 0.400 kg/ha
  SETVI rating: 9 (9 - Complete kill)
[7]; rate 0.025 kg/ha
  MATIN rating: 8 (8 - Approaching complete kill)
[7]; rate 0.100 kg/ha
  MATIN rating: 8 (8 - Approaching complete kill)
[7]; rate 0.400 kg/ha
  MATIN rating: 8 (8 - Approaching complete kill)
[8]; rate 0.025 kg/ha
  ECHCG rating: 3 (3 - Moderate effect)
[8]; rate 0.100 kg/ha
  ECHCG rating: 8 (8 - Approaching complete kill)
[8]; rate 0.400 kg/ha
  ECHCG rating: 9 (9 - Complete kill)
[9]; rate 0.025 kg/ha
  ABUTH rating: 3 (3 - Moderate effect)
[9]; rate 0.100 kg/ha
  ABUTH rating: 7 (7 - Good herbicidal effect)
[9]; rate 0.400 kg/ha
  ABUTH rating: 9 (9 - Complete kill)
[10]; rate 0.025 kg/ha
  GALAP rating: 4 (4 - Injury)
[10]; rate 0.100 kg/ha
  GALAP rating: 8 (8 - Approaching complete kill)
[10]; rate 0.400 kg/ha
  GALAP rating: 8 (8 - Approaching complete kill)
[11]; rate 0.025 kg/ha
  ALOMY rating: 6 (6 - Herbicidal effect)
[11]; rate 0.100 kg/ha
  ALOMY rating: 8 (8 - Approaching complete kill)
[11]; rate 0.400 kg/ha
  ALOMY rating: 8 (8 - Approaching complete kill)
[19]; rate 0.025 kg/ha
  STEME rating: 5 (5 - Definite injury)
[19]; rate 0.100 kg/ha
  STEME rating: 5 (5 - Definite injury)
[19]; rate 0.400 kg/ha
  STEME rating: 8 (8 - Approaching complete kill)
[12]; rate 0.025 kg/ha
  IPOHE rating: 5 (5 - Definite injury)
[12]; rate 0.100 kg/ha
  IPOHE rating: 7 (7 - Good herbicidal effect)
[12]; rate 0.400 kg/ha
  IPOHE rating: 9 (9 - Complete kill)
[13]; rate 0.025 kg/ha
  SETVI rating: 5 (5 - Definite injury)
[13]; rate 0.100 kg/ha
  SETVI rating: 7 (7 - Good herbicidal effect)
[13]; rate 0.400 kg/ha
  SETVI rating: 9 (9 - Complete kill)
[14]; rate 0.025 kg/ha
  MATIN rating: 4 (4 - Injury)
[14]; rate 0.100 kg/ha
  MATIN rating: 7 (7 - Good herbicidal effect)
[14]; rate 0.400 kg/ha
  MATIN rating: 8 (8 - Approaching complete kill)
[15]
  LOLMU rating: 8 (8 - Approaching complete kill)
[16]; rate 0.025 kg/ha
  ECHCG rating: 8 (8 - Approaching complete kill)
[16]; rate 0.100 kg/ha
  ECHCG rating: 8 (8 - Approaching complete kill)
[16]; rate 0.400 kg/ha
  ECHCG rating: 9 (9 - Complete kill)
[17]; rate 0.025 kg/ha
  ABUTH rating: 5 (5 - Definite injury)
[17]; rate 0.100 kg/ha
  ABUTH rating: 7 (7 - Good herbicidal effect)
[17]; rate 0.400 kg/ha
  ABUTH rating: 8 (8 - Approaching complete kill)
[18]; rate 0.025 kg/ha
  GALAP rating: 7 (7 - Good herbicidal effect)
[18]; rate 0.100 kg/ha
  GALAP rating: 8 (8 - Approaching complete kill)
[18]; rate 0.400 kg/ha
  GALAP rating: 9 (9 - Complete kill)
